Experimental data as given in PubChem BioAssay (NCI).
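GI50: concentration for 50% inhibition of growth. Definition used: TGI = concentration required for complete inhibition of growth.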

Assays:
Test in all cases: NCI anticancer screen, dose series, 384-well format
[1] = test system: RXF 393 renal
[2] = test system: MDA-MB-468 breast
[3] = test system: SK-OV-3 ovarian
[4] = test system: CAKI-1 renal
[5] = test system: T-47D breast
[6] = test system: PC-3 prostate
[7] = test system: HS 578T breast
[8] = test system: SF-295 CNS
[9] = test system: SNB-19 CNS
[10] = test system: SR leukemia
[11] = test system: EKVX NSCLC
[12] = test system: SK-MEL-5 melanoma
[13] = test system: UACC-62 melanoma
[14] = test system: SK-MEL-2 melanoma
[15] = test system: OVCAR-3 ovarian
[16] = test system: OVCAR-8 ovarian
[17] = test system: HCT-15 colon
[18] = test system: SW-620 colon
[19] = test system: NCI-H23 lung
[20] = test system: KM12 colon
[21] = test system: DU-145 prostate
[22] = test system: OVCAR-4 ovarian
[23] = test system: SF-539 CNS
[24] = test system: MCF7 breast
[25] = test system: U251 glioblastoma
[26] = test system: COLO 205 colon
[27] = test system: HL-60(TB) leukemia
[28] = test system: SF-268 CNS
[29] = test system: HCC-2998 colon
[30] = test system: RPMI-8226 leukemia
[31] = test system: MDA-MB-435 melanoma
[32] = test system: MOLT-4 leukemia
[33] = test system: NCI-H322M lung
[34] = test system: SNB-75 CNS
[35] = test system: NCI/ADR-RES ovarian
[36] = test system: TK-10 renal
[37] = test system: MDA-MB-231 breast
[38] = test system: NCI-H460 NSCLC
[39] = test system: UACC-257 melanoma
[40] = test system: HOP-62 NSCLC
[41] = test system: SK-MEL-28 melanoma
[42] = test system: SN12C renal
[43] = test system: OVCAR-5 ovarian
[44] = test system: HT29 colon
[45] = test system: IGROV1 ovarian
[46] = test system: BT-549 breast
[47] = test system: NCI-H226 lung
[48] = test system: 786-0 renal
[49] = test system: CCRF-CEM leukemia
[50] = test system: MALME-3M melanoma
[51] = test system: M14 melanoma
[52] = test system: ACHN renal
[53] = test system: A498 renal
[54] = test system: HOP-92 NSCLC
[55] = test system: NCI-H522 lung
[56] = test system: A549 NSCLC
[57] = test system: LOX IMVI melanoma
[58] = test system: HCT-116 colon
[59] = test system: K-562 leukemia
[60] = test system: UO-31 renal

In the case of `O=c1ccn(C2OC(CO)C(O)C2F)c(=O)[nH]1` (stereo unspecified), the GI50 [1] is reported as > 100000 nM, the TGI [1] is reported as > 100000 nM and the GI50 [2] is reported as > 100000 nM. For the same compound, the TGI [2] was > 100000 nM, the GI50 [3] was > 100000 nM and the TGI [3] was > 100000 nM. For the same compound, the GI50 [4] was > 100000 nM, the TGI [4] was > 100000 nM and the GI50 [5] was > 100000 nM. For the same compound, the TGI [5] was > 100000 nM, the GI50 [6] was > 100000 nM and the TGI [6] was > 100000 nM. The GI50 [7] was > 100000 nM, the TGI [7] was > 100000 nM and the GI50 [8] was > 100000 nM. The TGI [8] was > 100000 nM, the GI50 [9] was > 100000 nM and the TGI [9] was > 100000 nM. The GI50 [10] was > 100000 nM, the TGI [10] was > 100000 nM and the GI50 [11] was > 100000 nM. For the same compound, the TGI [11] was > 100000 nM, the GI50 [12] was > 100000 nM and the TGI [12] was > 100000 nM. For the same compound, the GI50 [13] was > 100000 nM, the TGI [13] was > 100000 nM and the GI50 [14] was > 100000 nM. The TGI [14] was > 100000 nM, the GI50 [15] was > 100000 nM and the TGI [15] was > 100000 nM. For the same compound, the GI50 [16] was > 100000 nM, the TGI [16] was > 100000 nM and the GI50 [17] was > 100000 nM. The TGI [17] was > 100000 nM, the GI50 [18] was > 100000 nM and the TGI [18] was > 100000 nM. The GI50 [19] was > 100000 nM, the TGI [19] was > 100000 nM and the GI50 [20] was > 100000 nM. The TGI [20] was > 100000 nM, the GI50 [21] was > 100000 nM and the TGI [21] was > 100000 nM. The GI50 [22] was > 100000 nM, the TGI [22] was > 100000 nM and the GI50 [23] was > 100000 nM. The TGI [23] was > 100000 nM, the GI50 [24] was > 100000 nM and the TGI [24] was > 100000 nM. For the same compound, the GI50 [25] was > 100000 nM, the TGI [25] was > 100000 nM and the GI50 [26] was > 100000 nM. The TGI [26] was > 100000 nM, the GI50 [27] was > 100000 nM and the TGI [27] was > 100000 nM. For the same compound, the GI50 [28] was > 100000 nM, the TGI [28] was > 100000 nM and the GI50 [29] was > 100000 nM. The TGI [29] was > 100000 nM, the GI50 [30] was > 100000 nM and the TGI [30] was > 100000 nM. The GI50 [31] was > 100000 nM, the TGI [31] was > 100000 nM and the GI50 [32] was 53100 nM. The TGI [32] was > 100000 nM, the GI50 [33] was > 100000 nM and the TGI [33] was > 100000 nM. The GI50 [34] was > 100000 nM, the TGI [34] was > 100000 nM and the GI50 [35] was > 100000 nM. The TGI [35] was > 100000 nM, the GI50 [36] was > 100000 nM and the TGI [36] was > 100000 nM. For the same compound, the GI50 [37] was > 100000 nM, the TGI [37] was > 100000 nM and the GI50 [38] was > 100000 nM. For the same compound, the TGI [38] was > 100000 nM, the GI50 [39] was > 100000 nM and the TGI [39] was > 100000 nM. The GI50 [40] was > 100000 nM, the TGI [40] was > 100000 nM and the GI50 [41] was > 100000 nM. For the same compound, the TGI [41] was > 100000 nM, the GI50 [42] was > 100000 nM and the TGI [42] was > 100000 nM. The GI50 [43] was > 100000 nM, the TGI [43] was > 100000 nM and the GI50 [44] was > 100000 nM. For the same compound, the TGI [44] was > 100000 nM, the GI50 [45] was > 100000 nM and the TGI [45] was > 100000 nM. For the same compound, the GI50 [46] was > 100000 nM, the TGI [46] was > 100000 nM and the GI50 [47] was > 100000 nM. The TGI [47] was > 100000 nM, the GI50 [48] was > 100000 nM and the TGI [48] was > 100000 nM. The GI50 [49] was 37300 nM, the TGI [49] was > 100000 nM and the GI50 [50] was > 100000 nM. For the same compound, the TGI [50] was > 100000 nM, the GI50 [51] was > 100000 nM and the TGI [51] was > 100000 nM. The GI50 [52] was > 100000 nM, the TGI [52] was > 100000 nM and the GI50 [53] was > 100000 nM. The TGI [53] was > 100000 nM, the GI50 [54] was > 100000 nM and the TGI [54] was > 100000 nM. The GI50 [55] was > 100000 nM, the TGI [55] was > 100000 nM and the GI50 [56] was > 100000 nM. For the same compound, the TGI [56] was > 100000 nM.

`CO[C@@H]1/C=C\C=C(/C)C(=O)NC2=CC(=O)C(NCCN(C)C)=C(C[C@@H](C)C[C@@H](OC)[C@@H](O)[C@H](C)/C=C(\C)[C@H]1OC(N)=O)C2=O` was tested, and the GI50 [1] was < 10 nM, the TGI [1] was 16.9 nM and the GI50 [2] was 23.8 nM. The TGI [2] was 54.3 nM, the GI50 [3] was 12.5 nM and the TGI [3] was 90.6 nM. It also gave a GI50 [4] of 52.7 nM, a TGI [4] of 12100 nM and a GI50 [5] of 102 nM. It also gave a TGI [5] of 790 nM, a GI50 [57] of 18.6 nM and a TGI [57] of 33.4 nM. It also gave a GI50 [6] of 19.9 nM, a TGI [6] of 53.1 nM and a GI50 [8] of 27.7 nM. It also gave a TGI [8] of 96.9 nM, a GI50 [9] of 18.2 nM and a TGI [9] of 2180 nM. The GI50 [58] was 26.9 nM, the TGI [58] was 1340 nM and the GI50 [10] was 12.7 nM. The TGI [10] was 27 nM, the GI50 [12] was < 10 nM and the TGI [12] was 366 nM. For the same compound, the GI50 [13] was < 10 nM, the TGI [13] was 48.4 nM and the GI50 [14] was < 10 nM. The TGI [14] was 27.5 nM, the GI50 [15] was 23.3 nM and the TGI [15] was 76.3 nM. The GI50 [16] was 21.6 nM, the TGI [16] was 48.3 nM and the GI50 [17] was 84.3 nM. For the same compound, the TGI [17] was 1310 nM, the GI50 [18] was < 10 nM and the TGI [18] was 78.1 nM. It also gave a GI50 [19] of 24.1 nM, a TGI [19] of 67.8 nM and a GI50 [20] of 15.2 nM. For the same compound, the TGI [20] was 86.4 nM, the GI50 [21] was < 10 nM and the TGI [21] was 22.4 nM. The GI50 [22] was 17.4 nM, the TGI [22] was 359 nM and the GI50 [23] was < 10 nM. It also gave a TGI [23] of 24.6 nM, a GI50 [24] of 13.2 nM and a TGI [24] of 147 nM. For the same compound, the GI50 [25] was < 10 nM, the TGI [25] was 36.2 nM and the GI50 [26] was < 10 nM. For the same compound, the TGI [26] was < 10 nM, the GI50 [59] was 24.1 nM and the TGI [59] was 85.3 nM. For the same compound, the GI50 [27] was 21 nM, the TGI [27] was 37.1 nM and the GI50 [60] was 368 nM. The TGI [60] was 11700 nM, the GI50 [28] was 24.8 nM and the TGI [28] was 2320 nM. For the same compound, the GI50 [29] was < 10 nM, the TGI [29] was 28.9 nM and the GI50 [30] was 16.1 nM. It also gave a TGI [30] of 35.4 nM, a GI50 [31] of 29.4 nM and a TGI [31] of 1360 nM. For the same compound, the GI50 [32] was 16.9 nM, the TGI [32] was 33.7 nM and the GI50 [33] was < 10 nM. It also gave a TGI [33] of 3400 nM, a GI50 [35] of 2180 nM and a TGI [35] of 5060 nM. It also gave a GI50 [36] of 77.4 nM, a TGI [36] of 846 nM and a GI50 [37] of 23.7 nM. The TGI [37] was 68.1 nM, the GI50 [38] was < 10 nM and the TGI [38] was < 10 nM. It also gave a GI50 [39] of 19 nM, a TGI [39] of 99 nM and a GI50 [40] of 16.8 nM. For the same compound, the TGI [40] was 66.1 nM, the GI50 [41] was 12.5 nM and the TGI [41] was 9830 nM. For the same compound, the GI50 [42] was 12 nM, the TGI [42] was 41.6 nM and the GI50 [43] was 36 nM. For the same compound, the TGI [43] was 173 nM, the GI50 [44] was < 10 nM and the TGI [44] was 1080 nM. The GI50 [45] was 22.6 nM, the TGI [45] was 63.1 nM and the GI50 [46] was < 10 nM. The TGI [46] was < 10 nM, the GI50 [47] was 22.7 nM and the TGI [47] was 84.5 nM. The GI50 [48] was 34.5 nM, the TGI [48] was 174 nM and the GI50 [49] was 38.1 nM. The TGI [49] was 138 nM, the GI50 [50] was < 10 nM and the TGI [50] was < 10 nM. For the same compound, the GI50 [51] was < 10 nM, the TGI [51] was 38 nM and the GI50 [52] was 128 nM. It also gave a TGI [52] of 2540 nM, a GI50 [53] of 50.8 nM and a TGI [53] of 12700 nM. For the same compound, the GI50 [54] was 36.4 nM, the TGI [54] was 137 nM and the GI50 [55] was 13 nM. For the same compound, the TGI [55] was 30.5 nM, the GI50 [56] was < 10 nM and the TGI [56] was 673 nM.
